Laboratory results as given in ChEMBL document CHEMBL4308854, “Novel indole-thiazolidinone conjugates: Design, synthesis and whole-cell phenotypic evaluation as a novel class of antimicrobial agents” (Eur J Med Chem, 2018).
Converted amounts (≈) assume the structure as drawn.

Key:
Candida albicans [1] = test: Antifungal activity against Candida albicans RCMB 05036 assessed as diameter of zone inhibition after 48 hrs by agar well diffusion assay; type: functional
Escherichia coli [2] = test: Antibacterial activity against Escherichia coli RCMB 010052 assessed as diameter of zone inhibition after 24 hrs by agar well diffusion assay; type: functional
Escherichia coli [3] = test: Antibacterial activity against Escherichia coli RCMB 010052 after 24 hrs by serial dilution method; type: functional; conditions: RCMB 010052, 24 h
Staphylococcus aureus [4] = test: Antibacterial activity against Staphylococcus aureus RCMB 010028 assessed as diameter of zone inhibition after 24 hrs by agar well diffusion assay; type: functional
Staphylococcus aureus [5] = test: Potency index, ratio of ciprofloxacin MIC to compound MIC for Staphylococcus aureus RCMB 010028; type: functional
Candida albicans [6] = test: Antifungal activity against Candida albicans RCMB 05036 after 24 hrs by serial dilution method; type: functional; conditions: RCMB 05036, 24 h
Staphylococcus aureus [7] = test: Antibacterial activity against Staphylococcus aureus RCMB 010028 after 24 hrs by serial dilution method; type: functional; conditions: RCMB 010028, 24 h
Aspergillus fumigatus [8] = test: Potency index, ratio of amphotericin B MIC to compound MIC for antifungal activity against Aspergillus fumigatus RCMB 02568; type: functional
Escherichia coli [9] = test: Potency index, ratio of ciprofloxacin MIC to compound MIC for Escherichia coli RCMB 010052; type: functional
Pseudomonas aeruginosa [10] = test: Antibacterial activity against Pseudomonas aeruginosa RCMB 010043 after 24 hrs by serial dilution method; type: functional; conditions: RCMB 010043, 24 h
Aspergillus fumigatus [11] = test: Antifungal activity against Aspergillus fumigatus RCMB 02568 assessed as diameter of zone inhibition after 48 hrs by agar well diffusion assay; type: functional
[12] = tested on: Mycobacterium tuberculosis; test: Antitubercular activity against Mycobacterium tuberculosis RCMB 010126 clinical isolate after 4 days by microplate alamar blue assay; type: functional; conditions: for MIC: Mycobacterium tuberculosis, RCMB 010126, 96 h
Pseudomonas aeruginosa [13] = test: Antibacterial activity against Pseudomonas aeruginosa RCMB 010043 assessed as diameter of zone inhibition after 24 hrs by agar well diffusion assay; type: functional
Aspergillus fumigatus [14] = test: Antifungal activity against Aspergillus fumigatus RCMB 02568 after 24 hrs by serial dilution method; type: functional; conditions: RCMB 02568, 24 h
Pseudomonas aeruginosa [15] = test: Potency index, ratio of ciprofloxacin MIC to compound MIC for Pseudomonas aeruginosa RCMB 010043; type: functional
Aspergillus fumigatus [16] = test: Potency index, ratio of amphotericin B MIC to compound MIC for Aspergillus fumigatus RCMB 02568; type: functional
[17] = tested on: Mycobacterium tuberculosis; test: Potency index, ratio of isoniazid MIC to compound MIC for antitubercular activity against Mycobacterium tuberculosis RCMB 010126 clinical isolate; type: functional
Staphylococcus aureus [18] = test: Antibacterial activity against methicillin-resistant Staphylococcus aureus ATCC 33592 after 24 hrs by serial dilution method; type: functional; conditions: ATCC 33592, 24 h
[19] = tested on: Mycobacterium tuberculosis; test: Antitubercular activity against Mycobacterium tuberculosis RCMB 010126 after 7 days by microplate alamar blue assay; type: functional; conditions: RCMB 010126, 168 h
[20] = Selectivity index, ratio of IC50 for human WI38 cells to MIC for Mycobacterium tuberculosis RCMB 010126; type: toxicity; conditions: read-out: Selectivity Index

CC(=O)c1sc(/N=C2\NC(=O)/C(=C3/C(=O)Nc4ccc(Cl)cc43)S2)nc1C
diameter of the inhibition zone (DIZ) (Candida albicans [1]): 24.2 mm | diameter of the inhibition zone (DIZ) (Escherichia coli [2]): 24.3 mm | MIC (Escherichia coli [3]): 0.49 µg/mL (≈ 1.17 µM) | diameter of the inhibition zone (DIZ) (Staphylococcus aureus [4]): 22.1 mm | Ratio (Staphylococcus aureus [5]): 2 | MIC (Candida albicans [6]): 0.49 µg/mL (≈ 1.17 µM) | MIC (Staphylococcus aureus [7]): 0.98 µg/mL (≈ 2.34 µM) | Ratio (Aspergillus fumigatus [8]): 2 | Ratio (Escherichia coli [9]): 4 | MIC (Pseudomonas aeruginosa [10]): 0.98 µg/mL (≈ 2.34 µM) | diameter of the inhibition zone (DIZ) (Aspergillus fumigatus [11]): 22.9 mm | inhibition (INH) [12]: 74.32% | MIC [12]: 0.78 µg/mL (≈ 1.86 µM) | diameter of the inhibition zone (DIZ) (Pseudomonas aeruginosa [13]): 22.5 mm | MIC (Aspergillus fumigatus [14]): 0.98 µg/mL (≈ 2.34 µM) | Ratio (Pseudomonas aeruginosa [15]): 4 | Ratio (Aspergillus fumigatus [16]): 2

CC(=O)c1sc(/N=C2\NC(=O)/C(=C3/C(=O)N(Cc4ccccc4)c4ccc(Cl)cc43)S2)nc1C
diameter of the inhibition zone (DIZ) (Candida albicans [1]): 25.3 mm | diameter of the inhibition zone (DIZ) (Escherichia coli [2]): 25.6 mm | MIC (Escherichia coli [3]): 0.49 µg/mL (≈ 0.963 µM) | diameter of the inhibition zone (DIZ) (Staphylococcus aureus [4]): 23.6 mm | Ratio (Staphylococcus aureus [5]): 2 | MIC (Candida albicans [6]): 0.49 µg/mL (≈ 0.963 µM) | MIC (Staphylococcus aureus [7]): 0.98 µg/mL (≈ 1.93 µM) | Ratio (Aspergillus fumigatus [8]): 2 | Ratio (Escherichia coli [9]): 4 | MIC (Pseudomonas aeruginosa [10]): 0.98 µg/mL (≈ 1.93 µM) | diameter of the inhibition zone (DIZ) (Aspergillus fumigatus [11]): 23.6 mm | inhibition (INH) [12]: 80.34% | MIC [12]: 0.39 µg/mL (≈ 0.766 µM) | diameter of the inhibition zone (DIZ) (Pseudomonas aeruginosa [13]): 23.5 mm | MIC (Aspergillus fumigatus [14]): 0.98 µg/mL (≈ 1.93 µM) | Ratio (Pseudomonas aeruginosa [15]): 4 | Ratio [17]: 2 | Ratio (Aspergillus fumigatus [16]): 2

CN[C@H](CC(C)C)C(=O)N[C@H]1C(=O)N[C@@H](CC(N)=O)C(=O)N[C@H]2C(=O)N[C@H]3C(=O)N[C@H](C(=O)N[C@H](C(=O)O)c4cc(O)cc(O)c4-c4cc3ccc4O)[C@H](O)c3ccc(c(Cl)c3)Oc3cc2cc(c3O[C@@H]2O[C@H](CO)[C@@H](O)[C@H](O)[C@H]2O[C@H]2C[C@](C)(N)[C@H](O)[C@H](C)O2)Oc2ccc(cc2Cl)[C@H]1O [VANCOMYCIN]
MIC (Staphylococcus aureus [18]): 1.95 µg/mL (≈ 1.35 µM)

CCOC(=O)c1sc(/N=C2\NC(=O)/C(=C/c3cccnc3)S2)nc1C
MIC [19]: 1.56 µg/mL (≈ 4.17 µM) | selectivity ratio [20]: 52.1
